Results on eight molecules are retold here after PubChem BioAssay (NCI).

Molecules are shown by their SMILES. Values joined by “and” are separate entries in the source; they are usually repeats but may differ in a detail not shown here. Identical values can stand only once.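 Compound exposure: 48 hours, 5 concentrations, 96-well plates. GI50 marks 50% less growth. TGI: total growth inhibition.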

Test systems include NCI/ADR-RES ovarian; RXF 393 renal; KM12 colon; OVCAR-5 ovarian; SK-MEL-28 melanoma; COLO 205 colon; K-562 leukemia; HT29 colon; SF-268 CNS; MDA-MB-435.
Holding throughout (assay): inhibition of tumour cell growth, NCI panel, 48 h

Turning to `Nc1ccc(-c2ccc(N)cc2I)c(I)c1`, the GI50 in the assay with NCI/ADR-RES ovarian was 19 µM; in the assay on RXF 393 renal it was 10.9 µM; in the assay with KM12 colon, 14.5 µM; with OVCAR-5 ovarian, 17.5 µM; in the assay with SK-MEL-28 melanoma, 14.1 µM; in the assay on COLO 205 colon, 17 µM. Moreover, the GI50 in the assay with K-562 leukemia is 5.89 µM; with HT29 colon it was 20 µM; in the assay on SF-268 CNS it was 20 µM; in the assay with MDA-MB-435 it was 3.72 µM. Besides, the TGI came to 70 µM in the assay on NCI/ADR-RES ovarian; 28 µM in the assay with RXF 393 renal; 36.5 µM with KM12 colon; 54.8 µM with OVCAR-5 ovarian; 38.6 µM in the assay on SK-MEL-28 melanoma; 38.1 µM with COLO 205 colon. The TGI with K-562 leukemia was 39.1 µM; in the assay with HT29 colon, 42.8 µM; in the assay with SF-268 CNS, greater than 100 µM; in the assay on MDA-MB-435, 16.2 µM.
With `O=C(OCCBr)c1ccc(Cl)c([N+](=O)[O-])c1`, the GI50 in the assay with NCI/ADR-RES ovarian is 21.4 µM; in the assay with RXF 393 renal, 15.5 µM; with KM12 colon it was 5 µM; with OVCAR-5 ovarian it was 18 µM; in the assay on SK-MEL-28 melanoma, 2.51 µM; with COLO 205 colon it was 16.8 µM. The GI50 in the assay on K-562 leukemia is 3.15 µM; in the assay with HT29 colon, 2.51 µM; in the assay with SF-268 CNS, 5.44 µM; in the assay on MDA-MB-435 it was 15.5 µM. Further, the TGI with NCI/ADR-RES ovarian is 53.1 µM; in the assay on RXF 393 renal it was 29.9 µM; in the assay on KM12 colon, 10.9 µM; with OVCAR-5 ovarian, 34.5 µM; in the assay with SK-MEL-28 melanoma it was 5.42 µM; with COLO 205 colon, 31.5 µM. Further, the TGI in the assay with K-562 leukemia stood at 13.2 µM; with HT29 colon, 5.14 µM; in the assay with SF-268 CNS, 10.3 µM; in the assay on MDA-MB-435, 30.9 µM.
Take `Nc1nc(N)c(N=O)c(OCC2CCCCC2)n1`: the TGI in the assay on NCI/ADR-RES ovarian is greater than 100 µM; in the assay on RXF 393 renal, 42.3 µM and 48.1 µM; in the assay with KM12 colon, greater than 100 µM; with OVCAR-5 ovarian, > 100 µM and 57.8 µM; in the assay on SK-MEL-28 melanoma, > 100 µM and 76.5 µM; in the assay with COLO 205 colon, 37.4 µM and 33.8 µM. Further, the TGI in the assay with K-562 leukemia is greater than 100 µM; in the assay with HT29 colon it was > 100 µM and 74.2 µM; in the assay on SF-268 CNS, greater than 95.4 µM; with MDA-MB-435 it was greater than 85.3 µM. The GI50 in the assay on RXF 393 renal is 8.04 µM; with OVCAR-5 ovarian it was 17.2 µM; with SK-MEL-28 melanoma, 13.2 µM; in the assay on COLO 205 colon, 15.1 µM; in the assay on HT29 colon, 6.88 µM; in the assay on SF-268 CNS it was 5.82 µM. Also, in the assay on MDA-MB-435, the GI50 is 12.8 µM.
`CCCCCCCOc1c(OC)cc(C2CC(=O)Nc3c2c(C)nn3-c2nc3ccccc3[nH]2)cc1OC` (configuration not stated): the GI50 is 3.83 µM in the assay on NCI/ADR-RES ovarian; 1.96 µM in the assay with RXF 393 renal; 2.81 µM with KM12 colon; 4.39 µM with OVCAR-5 ovarian; 2.77 µM in the assay on SK-MEL-28 melanoma; 4.34 µM in the assay on COLO 205 colon. In addition, the GI50 in the assay with K-562 leukemia was 4.23 µM; in the assay with HT29 colon, 4.06 µM; in the assay on SF-268 CNS, 2.12 µM; in the assay with MDA-MB-435 it was 2.42 µM. The TGI in the assay with NCI/ADR-RES ovarian is greater than 100 µM; in the assay with RXF 393 renal it was 5.02 µM; in the assay on KM12 colon, 9.81 µM; in the assay with OVCAR-5 ovarian it was greater than 100 µM; with SK-MEL-28 melanoma, 8.61 µM; in the assay on COLO 205 colon, greater than 100 µM. Also, the TGI with K-562 leukemia was greater than 100 µM; in the assay with HT29 colon, greater than 100 µM; with SF-268 CNS it was 6.68 µM; with MDA-MB-435, 6.08 µM.
With `Nc1n[nH]c2ccc([C@@H]3Nc4ccc5[nH]ncc5c4[C@H]4C5C=CC(C5)[C@@H]34)cc12` (some centres not stated), the GI50 in the assay on NCI/ADR-RES ovarian is 0.298 µM; in the assay on RXF 393 renal, 0.11 µM; in the assay on KM12 colon it was 0.39 µM; in the assay on OVCAR-5 ovarian, 0.586 µM; with SK-MEL-28 melanoma it was 1.59 µM; in the assay on COLO 205 colon, 0.332 µM. Besides, the GI50 was 0.0992 µM in the assay on K-562 leukemia, 0.357 µM in the assay with HT29 colon, 1.36 µM in the assay with SF-268 CNS and 0.0794 µM in the assay with MDA-MB-435. Moreover, the TGI was 2.28 µM in the assay with NCI/ADR-RES ovarian; 0.599 µM in the assay with RXF 393 renal; 11.4 µM in the assay on KM12 colon; 30.3 µM in the assay on OVCAR-5 ovarian; 31.9 µM in the assay on SK-MEL-28 melanoma; 1.83 µM with COLO 205 colon. For the same molecule, the TGI was greater than 100 µM in the assay on K-562 leukemia, 28.7 µM in the assay on HT29 colon, 31.5 µM in the assay with SF-268 CNS and 0.444 µM in the assay on MDA-MB-435.
For `CSc1ccccc1C#Cc1ccccc1C#CCCCCO`, the GI50 in the assay with NCI/ADR-RES ovarian is 11.5 µM; in the assay with RXF 393 renal, 3.86 µM; in the assay with KM12 colon it was 3.39 µM; in the assay with OVCAR-5 ovarian, 13.6 µM; in the assay with SK-MEL-28 melanoma, 15.1 µM; in the assay on COLO 205 colon it was 15.8 µM. Further, the GI50 with K-562 leukemia is 6.19 µM; with HT29 colon, 5.46 µM; in the assay on SF-268 CNS, 13.7 µM; with MDA-MB-435, 3.9 µM. Besides, the TGI worked out at 31.1 µM with NCI/ADR-RES ovarian; 17.5 µM in the assay on RXF 393 renal; 16.9 µM in the assay on KM12 colon; 32.2 µM in the assay on OVCAR-5 ovarian; 31.2 µM in the assay with SK-MEL-28 melanoma; 31.5 µM with COLO 205 colon. The TGI in the assay with K-562 leukemia was found to be 54.4 µM; in the assay on HT29 colon, 19.2 µM; with SF-268 CNS, 28.4 µM; with MDA-MB-435, 15.2 µM.
With `O=c1cc(N=Nc2ccc(O)cc2)[nH]c(=O)[nH]1`, the TGI in the assay with NCI/ADR-RES ovarian, in the assay with RXF 393 renal, in the assay with KM12 colon, in the assay on OVCAR-5 ovarian, in the assay with SK-MEL-28 melanoma and in the assay on COLO 205 colon was greater than 100 µM throughout. For the same molecule, the TGI with K-562 leukemia, with HT29 colon, in the assay with SF-268 CNS and in the assay with MDA-MB-435 was greater than 100 µM in each case.
In the case of `O=C(CN1CCN(c2ccccc2)CC1)N1CCN(c2nnc(-c3ccc(Cl)cc3)c(-c3ccc(Cl)cc3)n2)CC1`, the GI50 was 8.05 µM in the assay on NCI/ADR-RES ovarian; 9.41 µM with RXF 393 renal; 5.4 µM in the assay with KM12 colon; greater than 100 µM in the assay on OVCAR-5 ovarian; 56.2 µM in the assay on SK-MEL-28 melanoma; 3.61 µM in the assay on COLO 205 colon. For the same molecule, the GI50 with K-562 leukemia was 3.32 µM; in the assay with HT29 colon, 4.04 µM; with SF-268 CNS, 14.9 µM; with MDA-MB-435, 13.7 µM. In addition, the TGI in the assay with NCI/ADR-RES ovarian was greater than 100 µM; in the assay on RXF 393 renal it was 63.3 µM; in the assay on KM12 colon it was greater than 100 µM; in the assay on OVCAR-5 ovarian, greater than 100 µM; in the assay with SK-MEL-28 melanoma, greater than 100 µM; in the assay on COLO 205 colon, 27.7 µM. In addition, the TGI is greater than 100 µM in the assay on K-562 leukemia, 24 µM in the assay with HT29 colon, greater than 100 µM in the assay with SF-268 CNS and greater than 100 µM in the assay on MDA-MB-435.
